This note sets out measurements from patent EP0287128A1, “Antitumor agent” (RESEARCH CORPORATION TECHNOLOGIES, INC., priority 1987, dated 1988).

One data set has as its system Lewis lung carcinoma. The data set is described as follows: in vivo. From the text: (§1) The tumor tissue was obtained from mice bearing 7 to 10 day old tumors. To obtain the tumors, the animals were sacrificed by cervical dislocation. Tumors were removed aseptically and placed into petri dishes containing ice-cold phosphate buffered saline. Tumors were debrided, necrotic tissue was removed and viable tissue was cut into 2-3 mm fragments. These fragments were loaded into 13-gauge trochars for implantation. Animals were weighed prior to each i.p. injection, which began one day after implantation unless otherwise noted, so that the volume of injection could be adjusted to their individual weight.
(§2) Animals were implanted with Lewis lung carcinoma. Five animals were given FdC (12mg/kg) + H₄U 25mg/kg + BAU 9mg/kg 1/day × 7 days starting on day 1. Comparisons included FUra (25mg/kg) and FUra + BAU (10mg/kg).
(§3) Animals were implanted with Lewis lung carcinoma. Seven animals were given FdC (12mg/kg) + H₄U (25mg/kg) + BAU (30mg/kg). Comparisons included FUra 25 mg/kg and FUra + BAU (30mg/kg). The treatment schedule was as in Example 1A.
(§4) Animals were implanted with Lewis lung carcinoma. The treatment schedule was as described above. A comparison was made with FdU tested at its maximum tolerated dose, 75mg/kg. […] "Day of breakout" indicates the day tumor growth was first noticed in a group of animals in which tumor growth was arrested or in which tumor regression occurred.
(§5) Mice were implanted bilaterally with Lewis lung carcinoma (see Table 3).
(§6) Animals were implanted with Lewis lung carcinoma (see Table 4).

For data set [1], the system named is mammary adenocarcinoma-755 in its ascitic form. Briefly: Mammary adenocarcinoma-755, ascitic form, injected i.p. into mice. Format: in vivo, BD2F₁ mice. The following applies: for Day of Death / # Cures /6 mice / % Cures / mean day of death / Maximum Weight Loss / T/C: Table 7; for Day of Death: individual animals; for Day of Death / # Cures /6 mice / % Cures / mean day of death / T/C: mg/kg: FdC 12, H4U 25, BAU 10, FUra 26 (with BAU); for Maximum Weight Loss: mg/kg: FdC 12, H4U 25, BAU 10, FUra 26 (with BAU; alone not given); for T/C: not including cures. The source says: Forty-eight hours later (day 2) treatment 1/day × 7) was initiated.

The nature of another data set: in vivo. Conditions: mouse, in vivo.
Description: as §1, §2, §3, §4, §5, §6

[2] abbreviates: Example 2, BAU 30 mg/kg, H4U 25 mg/kg, administered without a fluorinated pyrimidine analog.
Setting [3] is: Table 3, one cycle (I) or no cycle mark, mg/kg: FdU 70, FdC 12, H4U 25, BAU 30 where given.

As to `O=c1[nH]c(=O)n(COCCO)cc1Cc1ccccc1` [BAU, benzacyclouridine], in the data set on Lewis lung carcinoma (setting [2]), the cures result is recorded as “no cures”, the “mean day of death” value is “no increase” and the “tumor inhibition” value was “no significant tumor inhibition”.

In the case of `O=c1[nH]cc(F)c(=O)[nH]1` [FUra, 5-fluorouracil], in the data set on Lewis lung carcinoma (Examples 1A and 1B together, i.p. 1/day x 7 days from day 1, mg/kg: FdC 12, H4U 25, BAU 9 or 30, FUra 25), the cures entry is on record as “No cures”. In addition, in data set [1] (Table 6, inoculum 10^7 cells, mg/kg: FdC 12, H4U 25, BAU 10, FUra 25, FdU 60), the “# of cures/6” value is “No cures”. For the same compound, in data set [1] (inoculum 5 x 10^5 cells), the “Day of Death” value is 17,18 21,22, the “# Cures /6 mice” value came out at 1, the “% Cures” value is on record as 17% and the “Maximum Weight Loss” value is 17.4. The T/C in data set [1] (inoculum 5 x 10^5 cells) was determined as 1.51. In addition, in data set [1] (inoculum 10^5 cells), the “Day of Death” value is listed as 17,19 21,33, the “# Cures /6 mice” value stood at 2, the “% Cures” value amounted to 33% and the “mean day of death” value is listed as 20.0. Further, in data set [1] (inoculum 10^5 cells), the “Maximum Weight Loss” value came to 17.0 and the T/C came to 1.57. Further, the “mean day of death” value in data set [1] (inoculum 5 x 10^5 cells, control 12.5) came to 19.2.

Turning to `O=c1[nH]c(=O)n([C@H]2C[C@H](O)[C@@H](CO)O2)cc1F` [FdU, 5-fluorodeoxyuridine], the MTD at 7 days in “in vivo” amounted to 75 mg/kg. Also, the “% Tumor Inhibition” value worked out at 83% in the data set with Lewis lung carcinoma (Table 3, day 10, one cycle (I) or no cycle mark, mg/kg: FdU 70, FdC 12, H4U 25, BAU 30 where given); 74% in the data set on Lewis lung carcinoma (Table 3, day 14, one cycle (I) or no cycle mark, mg/kg: FdU 70, FdC 12, H4U 25, BAU 30 where given); 58% in the data set with Lewis lung carcinoma (Table 3, day 18, one cycle (I) or no cycle mark, mg/kg: FdU 70, FdC 12, H4U 25, BAU 30 where given); 42% in the data set with Lewis lung carcinoma (Table 3, day 22, one cycle (I) or no cycle mark, mg/kg: FdU 70, FdC 12, H4U 25, BAU 30 where given); 31% in the data set on Lewis lung carcinoma (Table 3, day 26, one cycle (I) or no cycle mark, mg/kg: FdU 70, FdC 12, H4U 25, BAU 30 where given); 19% with Lewis lung carcinoma (Table 3, day 38, one cycle (I) or no cycle mark, mg/kg: FdU 70, FdC 12, H4U 25, BAU 30 where given). For the same compound, the T/C with Lewis lung carcinoma (Table 3, mean day of death T/C, one cycle (I) or no cycle mark, mg/kg: FdU 70, FdC 12, H4U 25, BAU 30 where given, * not including cures) is reported as 1.24. Moreover, the “# Cures /6” value in the data set on Lewis lung carcinoma (setting [3]) stood at 0. Moreover, the “# Toxic Deaths /6” value in the data set with Lewis lung carcinoma (setting [3]) turned out to be 0. Also, in the data set with Lewis lung carcinoma (setting [3]), the “Maximum % Weight Loss” value is 19%. Also, in the data set with Lewis lung carcinoma (Table 3, one cycle (I) or no cycle mark, mg/kg: FdU 70, FdC 12, H4U 25, BAU 30 where given, * not including cures, control 21.1), the “Mean Day of Death” value turned out to be 26.0.

For `O=C1NC(O)CCN1[C@@H]1O[C@H](CO)[C@@H](O)[C@H]1O` (some centres unmarked) [H₄U, tetrahydrouridine], in the data set on Lewis lung carcinoma (setting [2]), the cures result is given as “no cures”, the “mean day of death” value is listed as “no increase” and the “tumor inhibition” value is listed as “no significant tumor inhibition”.
